This passage reports IC50 results from patent publication US10174029B2, “Pyrimidine-2,4-diamine derivatives for treatment of cancer” (THOMAS HELLEDAYS STIFTELSE FOR MEDICINSK FORSKNING, priority 2012, dated 2019).

Each structure is given as a SMILES string. Structures can show the parent of a compound that is named as a salt.

The target in the first assay is MTH1 (Homo sapiens, UniProt P36639). The experiment in a line: MTH1 enzymatic assay and IC50 value determination (malachite green). Particulars: MTH1 4.8 nM, dGTP 100 μM, 15 minutes at 22° C.; group: between 2 μM and 10 μM. Format: biochemical. The method, then: MTH1 Enzymatic Assay and IC50 Value Determination
MTH1 catalyzes the hydrolysis of dGTP to dGMP and PPi. By coupling the reaction to pyrophosphatase added in excess PPi is converted to Pi that can be detected by using the malachite green assay reagent. Briefly, for IC50 value determination the compound to be analyzed is diluted in assay buffer in a 1:3 dilution series generating 12 different compound concentrations giving a final DMSO concentration of 1% in the assay well. MTH1 diluted in assay buffer (100 mM Tris-acetate, 40 mM NaCl, 10 mM magnesium acetate, 1 mM DTT and 0.005% Tween 20) fortified with E. coli pyrophosphatase (0.8 U/ml) is added to a final concentration of 4.8 nM. dGTP diluted in assay buffer is added to a final concentration of 100 μM. The reaction mixture is incubated with shaking for 15 minutes at 22° C. To 100 μl reaction mixture is 25 μl Malachite green assay regent (0.095% Malachite green in 17% H2SO4, 1.5% Ammonium molybdate, 0.17% Tween 20) added followed by incubation with shaking for 15 minutes at 22° C.
The absorbance of the assay plate is read at 630 nm using an EnVision Multilabel plate reader. The IC50 value is determined by fitting a dose response curve to the data points using nonlinear regression analysis and the equation Y=Bottom+(Top−Bottom)/(1+10^((Log IC50−X)*HillSlope)), where Y is the read absorbance at 630 nm and X is log [compound].
`Cc1cccc(-c2cc(NC3CCN(C(=O)OC(C)(C)C)CC3)nc(N)n2)c1C` [Example 237, tert-Butyl 4-((2-amino-6-(2,3-dimethylphenyl)pyrimidin-4-yl)amino)piperidine-1-carboxylate] had an IC50 of 2000 to 10000 nM.

In turn, `Cc1cccc(-c2cc(NCCC(=O)N3CCOCC3)nc(N)n2)c1C` [Example 277, 3-{[2-amino-6-(2,3-dimethylphenyl)pyrimidin-4-yl]amino}-1-(morpholin-4-yl)propan-1-one] returned an IC50 of 2000 to 10000 nM.

`Cc1cccc(-c2cc(N[C@@H]3CN4CCC3CC4)nc(N)n2)c1C` [Example 281, 4-N-[(3S)-1-azabicyclo[2.2.2]octan-3-yl]-6-(2,3-dimethylphenyl)pyrimidine-2,4-diamine]: the IC50 fell in the range of 2000 to 10000 nM.

Take `Cc1ccc(S(=O)(=O)N2CCOCC2)cc1-c1cc(NCCCN2CCCC2=O)nc(N)n1` [Example 289, 1-[3-({2-amino-6-[2-methyl-5-(morpholine-4-sulfonyl)phenyl]pyrimidin-4-yl}amino)propyl]pyrrolidin-2-one]: the IC50 lay within 2000 to 10000 nM.

Staying with this assay, now noted: MTH1 4.8 nM, dGTP 100 μM, 15 minutes at 22° C.; group: less than 200 nM.
Compound `CNc1cc(-c2cc(F)ccc2C(F)(F)F)nc(N)n1` [Example 208, 6-[5-fluoro-2-(trifluoromethyl)phenyl]-4-N-methylpyrimidine-2,4-diamine] registered an IC50 below 200 nM.

With `CNc1cc(-c2cc(Cl)ccc2Cl)nc(N)n1` [Example 209, 6-(2,5-dichlorophenyl)-4-N-methylpyrimidine-2,4-diamine], the IC50 was below 200 nM.

In turn, `CNc1cc(-c2cc(Cl)ccc2F)nc(N)n1` [Example 210, 6-(5-chloro-2-fluorophenyl)-4-N-methylpyrimidine-2,4-diamine] yielded an IC50 below 200 nM.

As to `CNc1cc(-c2cc(C#N)ccc2C)nc(N)n1` [Example 211, 3-[2-amino-6-(methylamino)pyrimidin-4-yl]-4-methylbenzonitrile], the IC50 was below 200 nM.

`CNc1cc(-c2cc(F)c(C)cc2Cl)nc(N)n1` [Example 213, 6-(2-chloro-5-fluoro-4-methylphenyl)-4-N-methylpyrimidine-2,4-diamine] came in with an IC50 below 200 nM.

On to `CNc1cc(-c2cc(C)c(F)cc2Cl)nc(N)n1` [Example 215, 6-(2-chloro-4-fluoro-5-methylphenyl)-4-N-methylpyrimidine-2,4-diamine], for which the IC50 was below 200 nM.

`Cc1ccc(Cl)cc1-c1cc(NC2CC2)nc(N)n1` [Example 219, 6-(5-chloro-2-methylphenyl)-4-N-cyclopropylpyrimidine-2,4-diamine]: the IC50 is below 200 nM.

Regarding `Cc1ccc(Cl)cc1-c1cc(NC2CCC2)nc(N)n1` [Example 220, 6-(5-chloro-2-methylphenyl)-4-N-cyclobutylpyrimidine-2,4-diamine], the IC50 is below 200 nM.

The compound `Cc1ccc(Cl)cc1-c1cc(NCCc2ccc(Cl)cc2)nc(N)n1` [Example 222, 6-(5-chloro-2-methylphenyl)-4-N-[2-(4-chlorophenyl)ethyl]pyrimidine-2,4-diamine] had an IC50 below 200 nM.

For `CNc1cc(-c2cccc(C)c2Cl)nc(N)n1` [Example 226, 6-(2-chloro-3-methylphenyl)-4-N-methylpyrimidine-2,4-diamine], the IC50 was below 200 nM.

Regarding `Cc1cccc(-c2cc(NC3CC3)nc(N)n2)c1Cl` [Example 227, 6-(2-chloro-3-methylphenyl)-4-N-cyclopropylpyrimidine-2,4-diamine], the IC50 is below 200 nM.

`Cc1cccc(-c2cc(NCCc3ccc(Cl)cc3)nc(N)n2)c1Cl` [Example 228, 6-(2-chloro-3-methylphenyl)-4-N-[2-(4-chlorophenyl)ethyl]pyrimidine-2,4-diamine] displayed an IC50 below 200 nM.

Compound `Nc1nc(NC2CC2)cc(-c2cccc3[nH]ccc23)n1` [Example 230, 4-N-cyclopropyl-6-(1H-indol-4-yl)pyrimidine-2,4-diamine] returned an IC50 below 200 nM.

Take `Nc1nc(NCCc2ccc(Cl)cc2)cc(-c2cccc3[nH]ccc23)n1` [Example 231, 4-N-[2-(4-chlorophenyl)ethyl]-6-(1H-indol-4-yl)pyrimidine-2,4-diamine]: the IC50 was below 200 nM.

In the case of `Nc1nc(NC2CC2)cc(-c2cccc3ncccc23)n1` [Example 232, 4-N-cyclopropyl-6-(quinolin-5-yl)pyrimidine-2,4-diamine], the IC50 was below 200 nM.

`Cc1c(Cl)cccc1-c1cc(NC2CC3CCC2C3)nc(N)n1` (centres unmarked) [Example 244, 4-N-{bicyclo[2.2.1]heptan-2-yl}-6-(3-chloro-2-methylphenyl)pyrimidine-2,4-diamine]: the IC50 was below 200 nM.

The compound `CCNc1cc(-c2cccc(Cl)c2C)nc(N)n1` [Example 245, 6-(3-chloro-2-methylphenyl)-4-N-ethylpyrimidine-2,4-diamine] came in with an IC50 below 200 nM.

Regarding `Cc1c(Cl)cccc1-c1cc(NC(C)C)nc(N)n1` [Example 246, 6-(3-chloro-2-methylphenyl)-4-N-(propan-2-yl)pyrimidine-2,4-diamine], the IC50 was below 200 nM.

The compound `Cc1ccc2[nH]c(C)c(CCNc3cc(-c4cccc(C)c4C)nc(N)n3)c2c1` [Example 249, 4-N-[2-(2,5-dimethyl-1H-indol-3-yl)ethyl]-6-(2,3-dimethylphenyl)pyrimidine-2,4-diamine] showed an IC50 below 200 nM.

The compound `Cc1cccc(-c2cc(NCc3ccc4cn[nH]c4c3)nc(N)n2)c1C` [Example 252, 6-(2,3-dimethylphenyl)-4-N-(1H-indazol-6-ylmethyl)pyrimidine-2,4-diamine] had an IC50 below 200 nM.

The compound `Cc1cccc(-c2cc(NCc3cnc(Cl)cn3)nc(N)n2)c1C` [Example 254, 4-N-[(5-chloropyrazin-2-yl)methyl]-6-(2,3-dimethylphenyl)pyrimidine-2,4-diamine] had an IC50 below 200 nM.

`CNc1cc(-c2ccc(OCC3CCN(C(=O)OC(C)(C)C)CC3)c(COC)c2)nc(N)n1` [Example 256, tert-butyl 4-{4-[2-amino-6-(methylamino)pyrimidin-4-yl]-2-(methoxymethyl)phenoxymethyl}piperidine-1-carboxylate] came in with an IC50 below 200 nM.

Consider `CNc1cc(-c2ccc(OCC3CCNCC3)c(COC)c2)nc(N)n1` [Example 257, 6-[3-(methoxymethyl)-4-(piperidin-4-ylmethoxy)phenyl]-4-N-methylpyrimidine-2,4-diamine hydrochloride], for which the IC50 is below 200 nM.

Take `CNc1cc(-c2ccc(OC)c(C)c2C)nc(N)n1` [Example 259, 6-(4-methoxy-2,3-dimethylphenyl)-4-N-methylpyrimidine-2,4-diamine]: the IC50 is below 200 nM.

In the case of `CNc1cc(-c2ccc(F)c(C)c2C)nc(N)n1` [Example 260, 6-(4-fluoro-2,3-dimethylphenyl)-4-N-methylpyrimidine-2,4-diamine], the IC50 was below 200 nM.

`Cc1ccccc1-c1cc(NCCc2ccc(Cl)cc2)nc(N)n1` [Example 264, 4-N-[2-(4-chlorophenyl)ethyl]-6-(2-methylphenyl)pyrimidine-2,4-diamine] came in with an IC50 below 200 nM.

Regarding `Nc1nc(NCCc2ccc(Cl)cc2)cc(-c2cccc3ncccc23)n1` [Example 266, 4-N-[2-(4-chlorophenyl)ethyl]-6-(quinolin-5-yl)pyrimidine-2,4-diamine], the IC50 was below 200 nM.

Compound `Cc1cccc(-c2cc(NC3CC3c3ccc(Cl)cc3)nc(N)n2)c1C` (centres unmarked) [Example 267, 4-N-[2-(4-chlorophenyl)cyclopropyl]-6-(2,3-dimethylphenyl)pyrimidine-2,4-diamine] showed an IC50 below 200 nM.

For the compound `Cc1cccc(-c2cc(NCCc3cccc(O)c3)nc(N)n2)c1C` [Example 269, 3-(2-{[2-amino-6-(2,3-dimethylphenyl)pyrimidin-4-yl]amino}ethyl)phenol], the IC50 was below 200 nM.

Consider `Cc1cccc(-c2cc(NCCNC(=O)OCc3ccccc3)nc(N)n2)c1C` [Example 273, benzyl N-(2-{[2-amino-6-(2,3-dimethylphenyl)pyrimidin-4-yl]amino}ethyl)-carbamate], for which the IC50 was below 200 nM.

`Cc1cccc(-c2cc(NCCCNC(=O)OC(C)(C)C)nc(N)n2)c1C` [Example 275, tert-butyl N-(3-{[2-amino-6-(2,3-dimethylphenyl)pyrimidin-4-yl]amino}propyl)-carbamate]: the IC50 is below 200 nM.

Consider `Cc1cc(CCCNc2cc(-c3cccc(C)c3C)nc(N)n2)n[nH]1` [Example 276, 6-(2,3-dimethylphenyl)-4-N-[3-(5-methyl-1H-pyrazol-3-yl)propyl]pyrimidine-2,4-diamine], for which the IC50 was below 200 nM.

`Cc1cccc(-c2cc(NCC3CCCN3C(=O)OC(C)(C)C)nc(N)n2)c1C` (centres unmarked) [Example 282, tert-butyl 2-({[2-amino-6-(2,3-dimethylphenyl)pyrimidin-4-yl]amino}methyl)-pyrrolidine-1-carboxylate] yielded an IC50 below 200 nM.

`Cc1cccc(-c2cc(NCC3(c4ccc(Cl)cc4)CC3)nc(N)n2)c1C` [Example 295, 4-N-{[1-(4-chlorophenyl)cyclopropyl]methyl}-6-(2,3-dimethylphenyl)pyrimidine-2,4-diamine] registered an IC50 below 200 nM.

Broadly, the IC50 is the concentration at which inhibition is half-maximal. A higher IC50 goes with a need for much substance.
